In ChEMBL document CHEMBL4665827, “Discovery of Small-Molecule Inhibitors of Receptor Activator of Nuclear Factor-κB Ligand with a Superior Therapeutic Index” (J Med Chem, 2020):
pKd: −log10 of the molar value. The source made the active and inactive calls. The rule behind the calls is not given here.

What was measured:
[1] = molecular target: T1, Tumor necrosis factor ligand superfamily member 11 (Homo sapiens) (UniProt O14788); assay: Inhibition of human RANKL-induced osteoclastogenesis in RANKL cultured mouse bone marrow cells assessed as reduction in RANKL/M-CSF-induced TRAP activity at 5 uM preincubated with RANKL for 1 hr followed by cell addition and subsequent media replenishment every 48 hrs for 4 days; format: cell-based; details: time 4.0 day
T1 sequence (whole entry): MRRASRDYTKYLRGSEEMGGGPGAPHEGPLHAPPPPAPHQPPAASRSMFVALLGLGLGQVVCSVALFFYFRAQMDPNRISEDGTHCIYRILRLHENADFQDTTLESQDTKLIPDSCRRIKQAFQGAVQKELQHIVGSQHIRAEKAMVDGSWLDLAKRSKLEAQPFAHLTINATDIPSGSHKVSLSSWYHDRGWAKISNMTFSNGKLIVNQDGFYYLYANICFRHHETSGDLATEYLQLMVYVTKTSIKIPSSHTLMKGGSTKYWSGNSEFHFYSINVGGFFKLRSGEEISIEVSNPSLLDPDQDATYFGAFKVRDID

[2] = molecular target: T2, Tumor necrosis factor ligand superfamily member 11 (Homo sapiens, UniProt O14788); assay: Binding affinity to GST-fused human RANKL extracellular domain (Lys159 to Asp317 residues) expressed in Escherichia coli BL21(DE3) pLysS by fluorescence spectrophotometric assay; details: for pKd: read-out: Kd
T2 sequence (O14788 whole entry): T1 sequence (whole entry)

[3] = Cytotoxicity against mouse BMMC assessed as reduction in cell viability measured after 48 hrs by MTT assay; format: cell-based; details: mouse BMMC (bone marrow cells), read-out: LC50
[4] = molecular target: T1, Tumor necrosis factor ligand superfamily member 11 (Homo sapiens); assay: (§1) Inhibition of RANKL (unknown origin) in RANKL cultured mouse RAW264.7 cells assessed as reduction in RANKL/RANK-interaction mediated cFOS expression by measuring cFOS protein expression at 5 uM preincubated for 1 hr followed by cell culture addition and measured after 2 days by Western blot analysis relative to positive control (reference value: 1); format: cell-based; details: time 49.0 hrs
[5] = molecular target: T1, Tumor necrosis factor ligand superfamily member 11 (Homo sapiens); assay: as §1, with “2” for “5”; format: cell-based; details: time 49.0 hrs
[6] = molecular target: T1, Tumor necrosis factor ligand superfamily member 11 (Homo sapiens); assay: as §1, with “NFATc1” for “cFOS”, “2” for “5”; format: cell-based; details: time 49.0 hrs
[7] = Therapeutic index, ratio of LC50 for mouse bone marrow cells to IC50 for Inhibition of human RANKL-induced osteoclastogenesis in RANKL cultured mouse bone marrow cells; format: toxicity; details: read-out: Ratio LC50/IC50
[8] = molecular target: T1, Tumor necrosis factor ligand superfamily member 11 (Homo sapiens); assay: as §1, with “NFATc1” for “cFOS”; format: cell-based; details: time 49.0 hrs
[9] = molecular target: T1, Tumor necrosis factor ligand superfamily member 11 (Homo sapiens); assay: as §1, with “10” for “5”; format: cell-based; details: time 49.0 hrs
[10] = molecular target: T1, Tumor necrosis factor ligand superfamily member 11 (Homo sapiens); assay: as §1, with “NFATc1” for “cFOS”, “10” for “5”; format: cell-based; details: time 49.0 hrs
[11] = molecular target: T1, Tumor necrosis factor ligand superfamily member 11 (Homo sapiens); assay: Inhibition of human RANKL-induced osteoclastogenesis in RANKL cultured mouse bone marrow cells assessed as reduction in RANKL/M-CSF-induced TRAP activity preincubated with RANKL for 1 hr followed by cell addition and subsequent media replenishment every 48 hrs for 4 days; format: cell-based; details: time 4.0 day
BMMC = assay: Cytotoxicity against mouse BMMC assessed as reduction in cell viability at 5 uM measured after 48 hrs by MTT assay; format: cell-based

| Structure (SMILES) | inhibition [1] | Kd [2] | pKd [2] | CC50 at 48 h [3] | further results |
| --- | --- | --- | --- | --- | --- |
| O=C(c1ccccc1)N1CCN(C(=O)c2cn(-c3cccc(C(F)(F)F)c3)c3ccccc23)CC1 | inactive | Not Active |  |  |  |
| CN(CCN(C)C(=O)n1ccnc1)C(=O)c1cn(S(=O)(=O)c2ccccc2)c2ccccc12 | inactive | Not Active |  |  |  |
| O=C(c1coc2ccccc2c1=O)N1CCN(C(=O)c2cn(S(=O)(=O)c3ccccc3)c3ccccc23)CC1 | Active |  | 4.96 | > 20 µM |  |
| CN(CCN(C)C(=O)c1cn(-c2cccc(C(F)(F)F)c2)c2ccc([N+](=O)[O-])cc12)C(=O)c1coc2ccccc2c1=O | 100% |  | 5.55 | < 20 µM |  |
| CN(CCN(C)C(=O)c1cn(S(=O)(=O)c2ccccc2)c2ccccc12)C(=O)c1ccccc1 | inactive |  | < 4.82 |  |  |
| Cc1cc2occ(C(=O)N3CCN(C(=O)c4cn(-c5cccc(C(F)(F)F)c5)c5ccccc45)CC3)c(=O)c2cc1C | 100% |  | 5.34 | < 20 µM |  |
| Cc1ccc2occ(CN3CCN(Cc4cn(-c5cccc(C(F)(F)F)c5)c5ccccc45)CC3)c(=O)c2c1 | inactive |  | < 4.96 |  |  |
| O=C(c1ccc2ccccc2c1)N1CCN(C(=O)c2cn(S(=O)(=O)c3ccccc3)c3ccccc23)CC1 | inactive | Not Active |  |  |  |
| O=C(c1cn(S(=O)(=O)c2cccc([N+](=O)[O-])c2)c2ccccc12)N1CCN(S(=O)(=O)c2ccccc2)CC1 |  |  |  | 123 µM | fold change (FC) [4]: 0.63; fold change (FC) [5]: 0.91; fold change (FC) [6]: 0.82; selectivity ratio [7]: 84.8; fold change (FC) [8]: 0.57; fold change (FC) [9]: 0.56; fold change (FC) [10]: 0.34 |
| CN(CCN(C)S(=O)(=O)c1cccc([N+](=O)[O-])c1)C(=O)c1cn(S(=O)(=O)c2cccc([N+](=O)[O-])c2)c2ccccc12 |  |  |  | 18.3 µM | selectivity ratio [7]: 9.5 |
| O=C(c1coc2ccccc2c1=O)N1CCN(C(=O)c2cn(-c3cccc(C(F)(F)F)c3)c3ccc([N+](=O)[O-])cc23)CC1 | inactive | Not Active |  |  |  |
| O=C(c1ccc2ccccc2c1)N1CCN(Cc2cn(-c3cccc(C(F)(F)F)c3)c3ccccc23)CC1 | inactive | Not Active |  |  |  |
| O=C(c1coc2ccccc2c1=O)N1CCN(Cc2cn(-c3cccc(C(F)(F)F)c3)c3ccccc23)CC1 | Active |  | 5.07 | > 20 µM |  |
| O=C(c1coc2ccccc2c1=O)N1CCN(Cc2cn(-c3cccc(C(F)(F)F)c3)c3ccc([N+](=O)[O-])cc23)CC1 | 100% | Not Active |  | < 20 µM |  |
| Nc1cccc(-n2cc(C(=O)N3CCN(C(=O)c4coc5ccccc5c4=O)CC3)c3ccccc32)c1 | inactive |  | 4.72 |  |  |
| O=C(c1cn(-c2cccc(C(F)(F)F)c2)c2ccccc12)N1CCN(C(=O)n2ccnc2)CC1 | Active |  | 5.27 | < 20 µM |  |
| O=C(NCCCNC(=O)c1cn(S(=O)(=O)c2ccccc2)c2ccccc12)c1ccccc1 | inactive | Not Active |  |  |  |
| CN(CCN(C)C(=O)c1cn(S(=O)(=O)c2cccc([N+](=O)[O-])c2)c2ccccc12)C(=O)c1coc2ccccc2c1=O | 100% |  | 5.34 | 32.2 µM | inhibition [11]: Dose-dependent effect; selectivity ratio [7]: 6.3 |
| Nc1cccc(-n2cc(C(=O)N3CCN(C(=O)c4coc5ccccc5c4=O)CC3)c3cc(N)ccc32)c1 | Active |  | 5.03 | > 20 µM |  |
| CN(CCN(C)C(=O)c1cn(S(=O)(=O)c2ccccc2)c2ccccc12)C(=O)c1ccccc1F | Active |  | 4.90 | > 20 µM |  |
| Cc1ccc2occ(CN(C)CCN(C)Cc3cn(S(=O)(=O)c4ccccc4)c4ccccc34)c(=O)c2c1 |  |  | 5.18 |  | Activity (BMMC): Toxic |

| Structure (SMILES) | inhibition [1] | Kd [2] | pKd [2] | CC50 at 48 h [3] | further results |
| --- | --- | --- | --- | --- | --- |
| CN(CCN(C)C(=O)c1cn(-c2cccc(N)c2)c2ccccc12)C(=O)c1coc2ccccc2c1=O | inactive |  | 4.75 |  |  |
| O=C(c1cn(S(=O)(=O)c2cccc([N+](=O)[O-])c2)c2ccccc12)N1CCN(S(=O)(=O)c2cccc([N+](=O)[O-])c2)CC1 |  |  |  | 118 µM | selectivity ratio [7]: 18.5 |
| O=C(NCCNC(=O)c1cn(S(=O)(=O)c2ccccc2)c2ccccc12)c1ccc2ccccc2c1 | inactive |  | 5.45 |  |  |
| CN(CCN(C)S(=O)(=O)c1ccccc1)C(=O)c1cn(S(=O)(=O)c2cccc([N+](=O)[O-])c2)c2ccccc12 |  |  |  | > 300 µM | selectivity ratio [7]: > 112 |
| Cc1cc2occ(CN3CCN(Cc4cn(-c5cccc(C(F)(F)F)c5)c5ccccc45)CC3)c(=O)c2cc1C | 100% |  | < 5.00 | < 20 µM |  |
| Cc1ccc2c(=O)c(CN(C)CCN(C)Cc3cn(S(=O)(=O)c4ccccc4)c4ccccc34)coc2c1 | 100% |  | 5.31 | < 20 µM |  |
| CN(CCN(C)C(=O)c1cn(S(=O)(=O)c2cccc(N)c2)c2ccccc12)C(=O)c1coc2ccccc2c1=O | inactive |  | 4.65 |  |  |
| O=C(c1coc2ccccc2c1=O)N1CCN(C(=O)c2cn(-c3cccc([N+](=O)[O-])c3)c3ccccc23)CC1 | inactive |  | < 4.60 |  |  |
| O=C(c1ccc2ccccc2c1)N1CCN(C(=O)c2cn(-c3cccc(C(F)(F)F)c3)c3ccccc23)CC1 | inactive | Not Active |  |  |  |
| O=C(c1ccccc1)N1CCN(Cc2cn(-c3cccc(C(F)(F)F)c3)c3ccccc23)CC1 | Active |  | 4.73 | > 20 µM |  |
| O=C(NCCCNC(=O)c1cn(S(=O)(=O)c2ccccc2)c2ccccc12)c1coc2ccccc2c1=O | inactive | Not Active |  |  |  |
| Nc1cccc(S(=O)(=O)n2cc(C(=O)N3CCN(C(=O)c4coc5ccccc5c4=O)CC3)c3ccccc32)c1 | inactive | Not Active |  |  |  |
| O=C(c1cccs1)N1CCN(C(=O)c2c[nH]c3ccc([N+](=O)[O-])cc23)CC1 | inactive |  | 4.80 |  |  |
| O=C(NCCCCNC(=O)c1cn(S(=O)(=O)c2ccccc2)c2ccccc12)c1ccc2ccccc2c1 | inactive |  | 4.74 |  |  |
| O=C(c1ccccc1F)N1CCN(C(=O)c2c[nH]c3ccc([N+](=O)[O-])cc23)CC1 | Active |  | 4.89 | > 20 µM |  |
| O=C(c1ccc2ccccc2c1)N1CCN(Cc2cn(-c3cccc(C(F)(F)F)c3)c3ccc([N+](=O)[O-])cc23)CC1 | Active | Not Active |  | > 20 µM |  |
| O=C(c1coc2ccccc2c1=O)N1CCN(C(=O)c2cn(S(=O)(=O)c3cccc([N+](=O)[O-])c3)c3ccccc23)CC1 | 100% | Not Active |  | < 20 µM |  |
| Nc1cccc(-n2cc(C(=O)N3CCN(C(=O)C4COc5ccccc5C4=O)CC3)c3cc(N)ccc32)c1 (configuration not stated) | inactive | Not Active |  |  |  |
| N#Cc1ccc(S(=O)(=O)N2CCN(C(=O)c3cn(S(=O)(=O)c4cccc([N+](=O)[O-])c4)c4ccccc34)CC2)cc1 |  |  |  | 52.6 µM | selectivity ratio [7]: 10.4 |
| CN(CCN(C)S(=O)(=O)c1ccc(C#N)cc1)C(=O)c1cn(S(=O)(=O)c2cccc([N+](=O)[O-])c2)c2ccccc12 |  |  |  | > 500 µM | selectivity ratio [7]: > 250 |
| Cc1cc2occ(CN(C)CCN(C)Cc3cn(S(=O)(=O)c4ccccc4)c4ccccc34)c(=O)c2cc1C |  |  | 5.06 |  | Activity (BMMC): Toxic |
